In patent US10023592B2, “Bromodomain inhibitors” (Celgene Quanticel Research, Inc., priority 2013, dated 2018):
Where two headings read alike, the source gives them in different places.

What was measured:
BRD4(BD1) = BRD4(BD1) (Homo sapiens (Human), UniProt O60885); assay: In vitro enzyme inhibition assay (BRD4 AlphaScreen); type: binding
Summary of the method: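 AlphaScreen proximity readout, using streptavidin donor and Ni-chelate acceptor beads at 5 μg/mL final, monitors biotin-H4 tetraacetylated peptide interaction with purified His-tagged BRD4.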

[1] = tested on: NCI-H460, human non-small cell lung cancer cells; assay: Cell-MTS proliferation assay, NCI-H460; type: cell-based; conditions: Homo sapiens, 168 hr
Summary of the method: (§1)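 Cells were seeded per 96-well at densities giving ~90% confluence by day 7 (Raji 15,000, HL-60 5,000, NCI-H460 3,000) and dosed 24 hr later with an 11-point dilution, 100 μM to 2.0 nM final. Seven-day MTS colorimetric read at OD490; IC50 from background-subtracted, DMSO-normalised values.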

[2] = tested on: Raji, human Burkitts lymphoma cells; assay: Cell-MTS proliferation assay, Raji; type: cell-based; conditions: Homo sapiens, 168 hr
Summary of the method: as §1

[3] = tested on: HL-60, human proleukemia cells; assay: Cell-MTS proliferation assay, HL-60; type: cell-based; conditions: Homo sapiens, 168 hr
Summary of the method: as §1

[4] = NCI-H460, Cell-MTS, class symbols A/B/C
[5] = Raji, Cell-MTS, class symbols A/B/C
[6] = HL-60, Cell-MTS, class symbols A/B/C
[7] = in vitro enzyme inhibition assay
[8] = Cell-MTS proliferation, NCI-H460 cells
[9] = Cell-MTS proliferation, Raji cells
[10] = Cell-MTS proliferation, HL-60 cells
[11] = NCI-H460, Cell-MTS proliferation

| Structure (SMILES) | IC50 (BRD4(BD1); [7]) [nM] | IC50 [1, 11] [nM] | IC50 ([2]; Raji, Cell-MTS proliferation) [nM] | IC50 ([3]; HL-60, Cell-MTS proliferation) [nM] | further results |
| --- | --- | --- | --- | --- | --- |
| CCS(=O)(=O)c1ccc(Oc2ccc(F)cc2F)c(-c2cc(F)c(=O)n(C)c2)c1 [Example 121, 5-[2-(2,4-difluorophenoxy)-5-ethylsulfonylphenyl]-3-fluoro-1-methylpyridin-2-one] | – | – | – | – | IC50 (BRD4(BD1); class symbols A/B/C): < 500 nM; IC50 [1, 4]: > 5000 nM; IC50 [2, 5]: 500 to 5000 nM; IC50 [3, 6]: < 500 nM |
| CCS(=O)(=O)Nc1ccc(Oc2ccc(F)cc2F)c(-c2cc(F)c(=O)n(C)c2)c1 [Example 122, N-[4-(2,4-difluorophenoxy)-3-(5-fluoro-1-methyl-6-oxopyridin-3-yl)phenyl]ethanesulfonamide] | – | – | – | – | IC50 (BRD4(BD1); class symbols A/B/C): < 500 nM; IC50 [1, 4]: > 5000 nM; IC50 [2, 5]: < 500 nM; IC50 [3, 6]: < 500 nM |
| Cc1cc(-c2cc(NS(C)(=O)=O)ccc2OC2CCOC2)cn(C)c1=O (stereo not drawn) [Example 444, N-[3-(1,5-dimethyl-6-oxopyridin-3-yl)-4-(oxolan-3-yloxy)phenyl] methanesulfonamide] | < 500 | – | – | – | IC50 [1, 8]: > 5000 nM; IC50 [2, 9]: < 500 nM; IC50 [3, 10]: < 500 nM |
| CCS(=O)(=O)Nc1ccc(Oc2ccc(F)cc2F)c(-c2cc(C)c(=O)n(CC3CC3)c2)c1 [Example 247, N-[3-[1-(cyclopropylmethyl)-5-methyl-6-oxopyridin-3-yl]-4-(2,4-difluoro-phenoxy)phenyl]ethanesulfonamide] | < 500 | > 5000 | < 500 | < 500 | – |
| CCS(=O)(=O)Cc1ccc(Oc2ccc(F)cc2F)c(-c2cc(OCC(F)(F)F)c(=O)n(C)c2)c1 [Example 292, 5-[2-(2,4-difluorophenoxy)-5-(ethylsulfonylmethyl)phenyl]-1-methyl-3-(2,2,2-trifluoroethoxy)pyridin-2-one] | < 500 | > 5000 | 500 to 5000 | < 500 | – |
| Cc1cc(-c2cc(S(C)(=O)=O)ccc2OCC2CC2)cn(CC2CC2)c1=O [Example 242, 5-[2-(cyclopropylmethoxy)-5-methylsulfonylphenyl]-1-(cyclopropylmethyl)-3-methylpyridin-2-one] | < 500 | > 5000 | 500 to 5000 | < 500 | – |
| CCS(=O)(=O)Nc1ccc(Oc2ccc(F)cc2F)c(-c2cc(N(C)C)c(=O)n(C)c2)c1 [Example 464, N-[4-(2,4-difluorophenoxy)-3-[5-(dimethylamino)-1-methyl-6-oxopyridin-3-yl]phenyl]ethanesulfonamide] | < 500 | – | – | – | IC50 [1, 8]: > 5000 nM; IC50 [2, 9]: < 500 nM; IC50 [3, 10]: < 500 nM |
| CCS(=O)(=O)Nc1ncc(Oc2ccc(F)cc2F)c(-c2cn(C)c(=O)c3occc23)n1 [Example 263, N-[5-(2,4-difluorophenoxy)-4-(6-methyl-7-oxofuro[2,3-c]pyridin-4-yl)pyrimidin-2-yl]ethanesulfonamide] | < 500 | > 5000 | < 500 | < 500 | – |
| Cn1cc(-c2cc(NS(C)(=O)=O)c(F)cc2OCC2CC2)c2c(c1=O)CCCC2 [Example 218, N-[4-(cyclopropylmethoxy)-2-fluoro-5-(2-methyl-1-oxo-5,6,7,8-tetrahydroisoquinolin-4-yl)phenyl]methanesulfonamide] | < 500 | > 5000 | 500 to 5000 | < 500 | – |
| CCS(=O)(=O)Nc1ccc(Oc2ccc(F)cc2F)c(-c2cc(N)c(=O)n(C)c2)c1 [Example 115, N-[3-(5-amino-1-methyl-6-oxopyridin-3-yl)-4-(2,4-difluorophenoxy)phenyl]ethanesulfonamide] | – | – | – | – | IC50 (BRD4(BD1); class symbols A/B/C): < 500 nM; IC50 [1, 4]: > 5000 nM; IC50 [2, 5]: < 500 nM; IC50 [3, 6]: < 500 nM |
| CCS(=O)(=O)c1ccc(OCC2CC2)c(-c2cn(C)c(=O)c3ccc(-c4cnn(C)c4)cc23)c1 [Example 82, 4-[2-(cyclopropylmethoxy)-5-ethylsulfonylphenyl]-2-methyl-6-(1-methylpyrazol-4-yl)isoquinolin-1-one] | – | – | – | – | IC50 (BRD4(BD1); class symbols A/B/C): < 500 nM; IC50 [1, 4]: 500 to 5000 nM; IC50 [2, 5]: < 500 nM; IC50 [3, 6]: < 500 nM |
| Cn1cc(-c2cc(NS(C)(=O)=O)ccc2Oc2ccc(F)cc2F)ccc1=O [Example 100, N-[4-(2,4-difluorophenoxy)-3-(1-methyl-6-oxopyridin-3-yl)phenyl]methanesulfonamide] | – | – | – | – | IC50 (BRD4(BD1)): < 500 nM; IC50 [1, 4]: > 5000 nM; IC50 [2, 5]: < 500 nM; IC50 [3, 6]: < 500 nM |
| COc1cc(-c2cc(CS(C)(=O)=O)ccc2Oc2ccc(F)cc2F)cn(C)c1=O [Example 400, 5-[2-(2,4-difluorophenoxy)-5-(methylsulfonylmethyl)phenyl]-3-methoxy-1-methylpyridin-2-one] | < 500 | – | – | – | IC50 [1, 8]: > 5000 nM; IC50 [2, 9]: < 500 nM; IC50 [3, 10]: < 500 nM |
| Cn1cc(-c2cc(CS(C)(=O)=O)ccc2OCC(F)(F)F)c2ccccc2c1=O [Example 488, 2-methyl-4-[5-(methylsulfonylmethyl)-2-(2,2,2-trifluoroethoxy)phenyl]isoquinolin-1-one] | < 500 | – | – | – | IC50 [1, 8]: > 5000 nM; IC50 [2, 9]: < 500 nM; IC50 [3, 10]: < 500 nM |
| CCS(=O)(=O)c1ccc(OCC2CC2)c(-c2cc(C)c(=O)n(C3CC3)c2)c1 [Example 251, 1-cyclopropyl-5-[2-(cyclopropylmethoxy)-5-ethylsulfonylphenyl]-3-methylpyridin-2-one] | < 500 | > 5000 | 500 to 5000 | < 500 | – |
| CCS(=O)(=O)c1ccc(OCC2CC2)c(-c2cn(C)c(=O)c3c2CCCC3)c1 [Example 219, 4-[2-(cyclopropylmethoxy)-5-ethylsulfonylphenyl]-2-methyl-5,6,7,8-tetrahydroisoquinolin-1-one] | < 500 | > 5000 | < 500 | < 500 | – |
| CC#CCOc1ccc(S(C)(=O)=O)cc1-c1cc(C)c(=O)n(C)c1 [Example 388, 5-(2-but-2-ynoxy-5-methylsulfonylphenyl)-1,3-dimethylpyridin-2-one] | < 500 | – | – | – | IC50 [1, 8]: > 5000 nM; IC50 [2, 9]: < 500 nM; IC50 [3, 10]: < 500 nM |
| COc1ccc(-c2cc(N(C)C)c(=O)n(C)c2)cc1NS(C)(=O)=O [Example 113, N-[5-[5-(dimethylamino)-1-methyl-6-oxopyridin-3-yl]-2-methoxyphenyl]methanesulfonamide] | – | – | – | – | IC50 (BRD4(BD1); class symbols A/B/C): < 500 nM; IC50 [1, 4]: 500 to 5000 nM; IC50 [2, 5]: 500 to 5000 nM; IC50 [3, 6]: < 500 nM |
| COCC1COc2cc(S(C)(=O)=O)cc(-c3cn(C)c(=O)c4ccccc34)c2O1 (stereo not drawn) [Example 497, 4-[3-(methoxymethyl)-7-methylsulfonyl-2,3-dihydro-1,4-benzodioxin-5-yl]-2-methylisoquinolin-1-one] | < 500 | – | – | – | IC50 [1, 8]: > 5000 nM; IC50 [2, 9]: 500 to 5000 nM; IC50 [3, 10]: 500 to 5000 nM |
| CCCc1cnc(NS(=O)(=O)CC)nc1-c1cc(C)c(=O)n(C)c1 [Example 308, N-[4-(1,5-dimethyl-6-oxopyridin-3-yl)-5-propylpyrimidin-2-yl] ethanesulfonamide] | < 500 | > 5000 | < 500 | < 500 | – |
| Cn1cc(-c2cc(S(C)(=O)=O)ccc2OCC2CC2)c2ccoc2c1=O [Example 254, 4-[2-(cyclopropylmethoxy)-5-methylsulfonylphenyl]-6-methylfuro[2,3-c]pyridine-7-one] | < 500 | > 5000 | < 500 | < 500 | – |
